We go through two molecules from US20100056441A1, “Method for Inhibiting Angiogenesis” (priority 2006, published 2010).

The test system of data set [1] is mouse HCC cells. The data set can be described thus: Apoptosis in mouse liver tumors (H&E, TUNEL, activated caspase 3). In kind it is in vivo. Particulars: treated tumor-bearing mice. The source says: Furthermore, these apoptotic tumor cells were not apparent in FoxM1 deficient livers in dsRNA (CKO) Mx-Cre Foxm1−/− mice (FIG. 3E-3G).
To measure apoptosis in mouse livers we used the Terminal Deoxynucleotidyl Transferase-mediated dUTP-biotin Nick End Labeling (TUNEL) assay on liver sections using the ApoTag Fluorescein in situ apoptosis detection kit from Intergen (Purchase, N.Y.) according to the manufacturer's recommendations. The mean number (±SD) of TUNEL- or DAPI-positive hepatocyte nuclei was calculated per 1000 cells or 200× field by counting the number of positive hepatocyte nuclei using five different 200× fields of liver tumor sections from male mice at the indicated times of DEN/PB exposure.

For data set [2], the system named is HCC cells of ARF -/- Rosa 26 FoxM1b TG mice. The data set is described as follows: Apoptosis of HCC in ARF -/- Rosa26 FoxM1b TG mice (H&E, TUNEL). In kind it is in vivo, mouse. The method, then: In order to determine the effective concentration of dose of the ARF peptide for efficient liver delivery, mice were subjected to IP injection of either 0.1, 1, 5 or 10 mg/Kg body weight of TMR fluorescently tagged WT ARF 26-44 peptide, and were sacrificed 24 hours later, after which their livers were dissected, formalin fixed and paraffin embedded. Liver sections were treated with Xylene to remove paraffin wax and then examined by fluorescent microscopy for red peptide fluorescence. This dose response curve determined that IP injection of either equal or greater than 5 mg/Kg body weight of TMR-fluorescently labeled WT ARF 26-44 peptide was detectable in cytoplasm and nucleolus of hepatocytes and in hepatic mesenchymal cells at 24 hours after injection (FIG. 4G). […]
To measure apoptosis in mouse livers we used the Terminal Deoxynucleotidyl Transferase-mediated dUTP-biotin Nick End Labeling (TUNEL) assay on liver sections using the ApoTag Fluorescein in situ apoptosis detection kit from Intergen (Purchase, N.Y.) according to the manufacturer's recommendations. The mean number (±SD) of TUNEL- or DAPI-positive hepatocyte nuclei was calculated per 1000 cells or 200× field by counting the number of positive hepatocyte nuclei using five different 200× fields of liver tumor sections from male mice at the indicated times of DEN/PB exposure. […]

Data set [3] has as its target T1, FoxM1b (Homo sapiens, UniProt Q08050).
T1 sequence (Q08050 1-748 isoform Q08050-2): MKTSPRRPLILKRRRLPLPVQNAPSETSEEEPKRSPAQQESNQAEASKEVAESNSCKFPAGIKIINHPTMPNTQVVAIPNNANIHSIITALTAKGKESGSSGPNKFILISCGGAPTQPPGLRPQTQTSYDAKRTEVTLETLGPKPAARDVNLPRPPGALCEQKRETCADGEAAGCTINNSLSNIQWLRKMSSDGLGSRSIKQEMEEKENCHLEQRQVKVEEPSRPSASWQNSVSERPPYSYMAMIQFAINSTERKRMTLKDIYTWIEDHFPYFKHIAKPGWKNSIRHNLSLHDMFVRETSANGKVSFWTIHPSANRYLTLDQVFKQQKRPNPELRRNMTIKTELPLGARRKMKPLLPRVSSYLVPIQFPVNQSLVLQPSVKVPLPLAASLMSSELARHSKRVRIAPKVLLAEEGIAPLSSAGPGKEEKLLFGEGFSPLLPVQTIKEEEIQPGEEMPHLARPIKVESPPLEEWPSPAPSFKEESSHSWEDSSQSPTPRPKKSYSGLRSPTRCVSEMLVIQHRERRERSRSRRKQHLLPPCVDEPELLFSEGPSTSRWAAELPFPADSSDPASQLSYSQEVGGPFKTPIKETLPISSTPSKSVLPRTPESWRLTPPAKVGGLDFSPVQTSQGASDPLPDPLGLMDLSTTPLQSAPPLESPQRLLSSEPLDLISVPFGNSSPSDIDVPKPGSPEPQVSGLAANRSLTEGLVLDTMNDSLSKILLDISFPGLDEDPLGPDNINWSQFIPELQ
Particulars: cited from earlier work.

Non-standard residues stand in square brackets, D forms with d. Residues, ends and D or L forms follow the SMILES beside them.

On to `CC(C)C[C@H](NC(=O)[C@H](C)NC(=O)[C@H](CS)NC(=O)[C@H](CO)NC(=O)[C@H](C)NC(=O)[C@@H](NC(=O)[C@H](CCCNC(=N)N)NC(=O)[C@@H]1CCCN1C(=O)[C@H](CCCNC(=N)N)NC(=O)[C@H](CCCNC(=N)N)NC(=O)[C@H](CO)NC(=O)[C@H](CCCNC(=N)N)NC(=O)[C@@H](NC(=O)[C@H](Cc1ccccc1)NC(=O)[C@H](CCCCN)NC(=O)[C@@H](CCCNC(=N)N)NC(=O)[C@@H](CCCNC(=N)N)NC(=O)[C@@H](CCCNC(=N)N)NC(=O)[C@@H](CCCNC(=N)N)NC(=O)[C@@H](CCCNC(=N)N)NC(=O)[C@@H](CCCNC(=N)N)NC(=O)[C@@H](CCCNC(=N)N)NC(=O)[C@@H](CCCNC(=N)N)NC(=O)[C@H](N)CCCNC(=N)N)C(C)C)[C@@H](C)O)C(=O)N[C@@H](C)C(=O)N[C@@H](Cc1ccccc1)C(=O)N[C@H](C(=O)N[C@@H](CC(N)=O)C(=O)O)C(C)C` [WT ARF 26-44 peptide, rrrrrrrrrKFVRSRRPRTASCALAFVN] (H-[dR][dR][dR][dR][dR][dR][dR][dR][dR]KFVRSRRPRTASCALAFVN-OH; N-terminus and C-terminus assumed), for which, in data set [1], the “activated caspase 3 staining in adjacent normal liver tissue” value is recorded as “no pro-apoptotic staining in the adjacent normal liver tissue” and the “red staining cells in surrounding normal liver tissue (H&E)” value is “neither in the surrounding normal liver tissue”. Besides, the “TUNEL-positive cells in adjacent normal liver tissue” value in data set [2] was “not detected in adjacent normal liver tissue”.
Regarding “KFVRSRRPRTASCALAFVN (listed as Homo sapiens) [p19ARF26-44 peptide, amino acids 26-44 of the p19ARF tumor suppressor protein]”, the “inhibition of FoxM1B activity” value in data set [3] was “sufficient in inhibiting FoxM1B activity”.
